Data as given in patent US12686665B2, “Bicyclic fused ring derivative or salt thereof and pharmaceutical composition comprising same” (YUHAN CORPORATION, priority 2021, dated 2026).
Where a name gives a salt, the structure may show the parent alone.

Target: T1, recombinant human Lysyl Oxidase-Like 2 (LOXL2) (Homo sapiens, UniProt Q9Y4K0)
T1 construct: purchased R&D systems
T1 sequence (Q9Y4K0 26-774): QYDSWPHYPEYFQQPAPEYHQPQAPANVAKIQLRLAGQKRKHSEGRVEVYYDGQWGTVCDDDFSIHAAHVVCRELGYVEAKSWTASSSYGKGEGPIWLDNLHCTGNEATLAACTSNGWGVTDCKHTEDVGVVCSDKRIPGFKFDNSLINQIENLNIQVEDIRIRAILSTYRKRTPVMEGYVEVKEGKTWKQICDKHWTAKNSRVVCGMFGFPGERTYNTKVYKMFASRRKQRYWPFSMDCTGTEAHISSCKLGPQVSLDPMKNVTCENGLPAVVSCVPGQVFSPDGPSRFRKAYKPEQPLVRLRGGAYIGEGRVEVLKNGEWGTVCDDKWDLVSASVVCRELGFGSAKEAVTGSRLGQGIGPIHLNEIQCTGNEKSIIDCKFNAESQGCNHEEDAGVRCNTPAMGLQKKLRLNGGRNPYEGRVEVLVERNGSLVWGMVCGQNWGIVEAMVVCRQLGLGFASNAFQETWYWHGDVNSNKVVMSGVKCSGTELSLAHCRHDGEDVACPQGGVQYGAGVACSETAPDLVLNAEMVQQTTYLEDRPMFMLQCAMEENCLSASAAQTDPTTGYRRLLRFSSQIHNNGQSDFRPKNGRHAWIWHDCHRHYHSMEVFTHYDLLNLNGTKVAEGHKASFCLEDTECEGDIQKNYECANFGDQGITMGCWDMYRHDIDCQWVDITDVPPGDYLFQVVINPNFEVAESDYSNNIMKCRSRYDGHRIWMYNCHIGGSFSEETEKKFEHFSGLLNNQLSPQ
Assay: Amplex Red HRP-coupled amine oxidase assay, recombinant human LOXL2
Format: biochemical
Settings: 60 min incubation with enzyme at 37° C., putrescine substrate, read-out: Inhibitory activity (IC50, nM) human LOXL2
Description: The activities of the compounds according to the present invention against recombinant human Lysyl Oxidase-Like 2 (recombinant human LOXL2, R&D systems) were evaluated by measuring the levels of hydrogen peroxide in the HRP (horseradish peroxidase) coupled reactions, with the Amplex Red Hydrogen Peroxide Assay Kit (Molecular Probes, Invitrogen, USA). The tests were carried out at 37° C., and putrescine was used as a substrate. In the HRP coupling reaction, the oxidation of 10-acetyl-3,7-dihydroxyphenoxazine (Amplex Red reagent) by hydrogen peroxide generates a fluorescent product, i.e., resorufin. Briefly, the test compounds were dissolved in dimethyl sulfoxide (DMSO) at a concentration of 20 mM. Dose-response measurements were carried out by serial dilutions in DMSO to generate a six-point curve. The upper concentration was adjusted according to the potency of the compound, and then diluted with the reaction buffer to obtain a final DMSO concentration of 1%. Purified human LOXL2 in 50 mM sodium phosphate buffer (pH7.4) was added to each well of a 96 well black plate. The test compounds dissolved in DMSO were incubated with the human LOXL2 enzyme at 37° C. for 60 minutes. After the incubation for 60 minutes, a reaction mixture containing 400 μM Amplex Red reagent, 30 mM putrescine, and 2 U/mL HRP in 50 mM sodium phosphate buffer (pH 7.4) was added to each well. Fluorescence was measured with a microplate reader (Flexstation3, Molecular Devices), under the conditions of excitation at 530 nm and emission at 590 nm, 1 hour after the addition of the mixture. Inhibition by each compound was measured as % reduction in signal, compared to the control without an inhibitor (diluted DMSO only). The data were fixed to a four-variable logistic model, and […] values were calculated using the GraphPad Prism program.

Point of comparison: `Cn1nc(C(F)(F)F)cc1-c1cc(C#N)cc2c1ncn2C/C(F)=C/CN` [Example 193, (Z)-1-(4-amino-2-fluorobut-2-en-1-yl)-4-(1-methyl-3-(trifluoromethyl)-1H-pyrazol-5-yl)-1H-benzo[d]imidazol-6-carbonitrile hydrochloride], IC50 204 nM. Against it:
- Cn1nc(C(F)(F)F)cc1-c1cc(C(F)(F)F)cc2c1ncn2C/C(F)=C/CN [Example 179, (Z)-3-fluoro-4-(4-[1-methyl-3-(trifluoromethyl)-1H-pyrazol-5-yl]-6-(trifluoromethyl)-1H-benzo[d]imidazol-1-yl)but-2-en-1-amine hydrochloride] — 2.5-fold higher, 506 nM
- CCn1nccc1-c1cc(C(F)(F)F)cc2c1nnn2C/C(F)=C/CN [Example 203, (Z)-4-(4-(1-ethyl-1H-pyrazol-5-yl)-6-(trifluoromethyl)-1H-benzo[d][1,2,3]triazol-1-yl)-3-fluorobut-2-en-1-amine hydrochloride] — 1.7-fold higher, 351 nM
- N#Cc1cc(-c2cccc(CO)c2Cl)c2ncn(C/C(F)=C/CN)c2c1 [Example 186, (Z)-1-(4-amino-2-fluoro-2-but-1-yl)-4-(2-chloro-3-(hydroxymethyl)phenyl)-1H-benzo[d]imidazol-6-carbonitrile hydrochloride] — 1.9-fold lower, 109 nM
- NC/C=C(\F)Cn1cnc2c(-c3cnn(CCO)c3)cc(C(F)(F)F)cc21 [Example 180, (Z)-2-(4-(1-(4-amino-2-fluorobut-2-en-1-yl)-6-(trifluoromethyl)-1H-benzo[d]imidazol-4-yl)-1H-pyrazol-1-yl)ethan-1-ol hydrochloride] — 1.6-fold higher, 323 nM
- COC(=O)c1cc(-c2cccc(S(C)(=O)=O)c2)c2nnn(C/C(F)=C/CN)c2c1 [Example 118, methyl (Z)-1-(4-amino-2-fluorobut-2-en-1-yl)-4-(3-(methylsulfonyl)phenyl)-1H-benzo[d][1,2,3]triazol-6-carboxylate hydrochloride] — 6-fold lower, 34 nM
- CCN(CC)S(=O)(=O)c1ccc(OC)c(-c2cc(C(=O)OC)cc3c2ncn3C/C(F)=C/CN)c1 [Example 26, methyl (Z)-1-(4-amino-2-fluorobut-2-en-1-yl)-4-(5-(N,N-diethylsulfamoyl)-2-methoxyphenyl)-1H-benzo[d]imidazol-6-carboxylate hydrochloride] — 3.3-fold lower, 62.5 nM
- CCn1nccc1-c1cc(C(F)(F)F)cc2c1ncn2C/C(F)=C/CN [Example 177, (Z)-4-(4-(1-ethyl-1H-pyrazol-5-yl)-6-(trifluoromethyl)-1H-benzo[d]imidazol-1-yl]-3-fluoro-but-2-en-1-amine hydrochloride] — 2.1-fold higher, 419 nM
- CNS(=O)(=O)c1cccc(-c2cc(C(=O)OC)cc3c2nnn3C/C(F)=C/CN)c1 [Example 123, methyl (Z)-1-(4-amino-2-fluorobut-2-en-1-yl)-4-(3-(N-methylsulfamoyl)phenyl)-1H-benzo[d][1,2,3]triazol-6-carboxylate hydrochloride] — 16-fold lower, 12.6 nM
- COc1ccc(S(=O)(=O)N2CCN(C)CC2)cc1-c1cccc2c1nnn2C/C(F)=C/CN [Example 113, (Z)-3-fluoro-4-(4-(2-methoxy-5-((4-methylpiperazin-1-yl)sulfonyl)phenyl)-1H-benzo[d][1,2,3]triazol-1-yl)but-2-en-1-amine hydrochloride] — 3.1-fold lower, 65 nM
- COC(=O)c1cc(-c2cccc(S(=O)(=O)N3CCCCC3)c2)c2ncn(C/C(F)=C/CN)c2c1 [Example 33, methyl (Z)-1-(4-amino-2-fluorobut-2-en-1-yl)-4-(3-(piperidin-1-ylsulfonyl)phenyl)-1H-benzo[d]imidazol-6-carboxylate hydrochloride] — 3.7-fold lower, 55.6 nM
- N#Cc1cc(-c2cncnc2)c2ncn(C/C(F)=C/CN)c2c1 [Example 190, (Z)-1-(4-amino-2-fluorobut-2-en-1-yl)-4-(pyrimidin-5-yl)-1H-benzo[d]imidazol-6-carbonitrile hydrochloride] — 1.7-fold lower, 117 nM
- N#Cc1cc(-c2cncc(F)c2)c2ncn(C/C(F)=C/CN)c2c1 [Example 188, (Z)-1-(4-amino-2-fluorobut-2-en-1-yl)-4-(5-fluoropyridin-3-yl)-1H-benzo[d]imidazol-6-carbonitrile hydrochloride] — 1.6-fold lower, 131 nM
- CONC(=O)c1cc(-c2cc(S(=O)(=O)NC3CC3)ccc2OC)c2nnn(C/C(F)=C/CN)c2c1 [Example 136, (Z)-1-(4-amino-2-fluorobut-2-en-1-yl)-4-(5-(N-cyclopropylsulfamoyl)-2-methoxyphenyl)-N-methoxy-1H-benzo[d][1,2,3]triazol-6-carboxamide hydrochloride] — 32-fold lower, 6.4 nM
- COC(=O)c1cc(-c2cccc(S(=O)(=O)N3CCC(F)(F)C3)c2)c2nnn(C/C(F)=C/CN)c2c1 [Example 115, methyl (Z)-1-(4-amino-2-fluorobut-2-en-1-yl)-4-(3-((3,3-difluoropyrrolidin-1-yl)sulfonyl)phenyl)-1H-benzo[d][1,2,3]triazol-6-carboxylate hydrochloride] — 3.5-fold lower, 58.7 nM
- COC(=O)c1cc(-c2ccc(OC)c(S(=O)(=O)NC(C)C)c2)c2nnn(C/C(F)=C/CN)c2c1 [Example 121, methyl (Z)-1-(4-amino-2-fluorobut-2-en-1-yl)-4-(3-(N-isopropylsulfamoyl)-4-methoxyphenyl)-1H-benzo[d][1,2,3]triazol-6-carboxylate hydrochloride] — 4.8-fold lower, 42.9 nM
- NC/C=C(\F)Cn1nnc2c(-c3cccc(CO)c3Cl)cc(C(F)(F)F)cc21 [Example 199, (Z)-(3-(1-(4-amino-2-fluoro-2-en-1-yl)-6-(trifluoromethyl)-1H-benzo[d][1,2,3]triazol-4-yl)-2-chlorophenyl)methanol hydrochloride] — within 1.5-fold, 305 nM
- CNS(=O)(=O)c1ccc(OC)c(-c2cc(C(=O)NOC)cc3c2nnn3C/C(F)=C/CN)c1 [Example 134, (Z)-1-(4-amino-2-fluorobut-2-en-1-yl)-N-methoxy-4-(2-methoxy-5-(N-methylsulfamoyl)phenyl)-1H-benzo[d][1,2,3]triazol-6-carboxamide hydrochloride] — 26-fold lower, 8 nM
- Cc1cc(-c2cc(C(F)(F)F)cc3c2nnn3C/C(F)=C/CN)n(C)n1 [Example 204, (Z)-4-[4-(1,3-dimethyl-1H-pyrazol-5-yl)-6-(trifluoromethyl)-1H-benzo[d][1,2,3]triazol-1-yl]-3-fluorobut-2-en-1-amine hydrochloride] — 2.4-fold higher, 497 nM
- COC(=O)c1cc(-c2ccc(OC)c(S(=O)(=O)NC(C)C)c2)c2ncn(C/C(F)=C/CN)c2c1 [Example 28, methyl (Z)-1-(4-amino-2-fluorobut-2-en-1-yl)-4-(3-(N-isopropylsulfamoyl)-4-methoxyphenyl)-1H-benzo[d]imidazol-6-carboxylate hydrochloride] — 3.8-fold lower, 54.2 nM
- CCN(CC)S(=O)(=O)c1ccc(OC)c(-c2cc(C(=O)N(C)OC)cc3c2nnn3C/C(F)=C/CN)c1 [Example 138, (Z)-1-(4-amino-2-fluorobut-2-en-1-yl)-4-(5-(N,N-diethylsulfamoyl)-2-methoxyphenyl)-N-m ethoxy-N-methyl-1H-benzo[d][1,2,3]triazol-6-carboxamide hydrochloride] — 3.8-fold lower, 54.3 nM
- N#Cc1cc(-c2cncc(Cl)c2)c2nnn(C/C(F)=C/CN)c2c1 [Example 209, (Z)-1-(4-amino-2-fluorobut-2-en-1-yl)-4-(5-chloropyridin-3-yl)-1H-benzo[d][1,2,3]triazol-6-carbonitrile hydrochloride] — 2.4-fold lower, 86.8 nM
- CC(C)n1nccc1-c1cc(C(F)(F)F)cc2c1ncn2C/C(F)=C/CN [Example 178, (Z)-3-fluoro-4-(4-(1-isopropyl-1H-pyrazol-5-yl)-6-(trifluoromethyl)-1H-benzo[d]imidazol-1-yl)but-2-en-1-amine hydrochloride] — 2.3-fold higher, 463 nM
- COc1ccc(-c2cccc3c2nnn3C/C(F)=C/CN)cc1S(=O)(=O)NC(C)C [Example 109, (Z)-5-(1-(4-amino-2-fluorobut-2-en-1-yl)-1H-benzo[d][1,2,3]triazol-4-yl)-N-isopropyl-2-methoxybenzenesulfonamide hydrochloride] — 2.8-fold lower, 72 nM
